# Experimental data from patent publication US11833144B2, “Treating autoimmune disease” (Mayo Foundation for Medical Education and Research, priority 2020, dated 2023).
# What was measured:
# [1] = tested on: human B cells; assay: Human naive B cell proliferation (thymidine incorporation) and CD27 expression; assay type: cell-based
# Experimental: PBMCs were isolated from the medical waste following apheresis collection of platelets. Briefly, blood was diluted 1:3 using PBS. The diluted blood was then overlaid with Ficoll-Paque PLUS density gradient medium (GE Healthcare). The gradient was centrifuged at 400 g with no brake for 25 minutes at room temperature. The PBMC interphase layer was collected, washed with PBS with 0.1% BSA/2 mM of EDTA. Naive B cells (CD19^+CD27^−IgD^+) were enriched using Human naive B cell negative selection kit (Stemcell Technologies). Mouse B cells were isolated from pooled single cell suspensions of spleen and peripheral lymph nodes using CD19 Microbeads (Miltenyi) or Mouse B cell Isolation Kit (Stemcell Technologies). B cells were stimulated with LPS (10 μg/mL; Sigma-Aldrich) and recombinant IL-4 cytokine (10 ng/mL; Tonbo Bioscience) with or without SCD inhibitor SSI-4, and proliferation was measured by dilution of CellTrace Violet proliferation dye (Thermo Fisher Scientific). B cells were also stimulated with anti-IgM (10 μg/mL; Jackson ImmunoResearch), anti-CD40 (10 μg/mL; BioXcell) and IL-4 (10 ng/mL; Tonbo Bioscience), or TLR ligand CpG (2.5 μM; IDT), recombinant IL-4 and IL-5 (10 ng/mL; Tonbo Bioscience) cytokines. To test the function of monounsaturated and saturated fatty acids, B cells were activated in presence of exogenous fatty acid-BSA conjugate. Palmitoleic acid (NU-CHEK PREP, INC), palmitic acid (NU-CHEK PREP, INC), stearic acid (NU-CHEK PREP, INC) were conjugated with fatty acid free BSA (Sigma-Aldrich) as described elsewhere (Wang et al., Immunity 35:871-882 (2011)). Human B cells were activated with CpG OND2006 (2.5 μM; IDT), recombinant human cytokine IL-10 ([…]; Peprotech), IL-15 (10 ng/mL; Peprotech), IL-4 (10 ng/mL; Biolegend), IL-2 (10 unit/mL) and anti-human CD40 (1 μg/mL; BioXcell). Human B cell proliferation was measured by ^3[H]-thymidine incorporation (1 μCi/mL) (American Radiolabeled Chemicals).
# [2] = tested on: MRL/MpJ-Faslpr mice; assay: MRL/MpJ-Faslpr lupus mouse model fed SSI-4 chow; assay type: in vivo
# Experimental: (§1) MRL/MpJ-Fas^lpr mice and B6 (C)-H2-Ab1^bm12/KhEgJ (bm12) mice were purchased from the Jackson Laboratory. Six weeks old female MRL/MpJ-Fas^lpr mice were treated with control chow or SSI-4 chow (60 mg/kg, on a two-week SSI-4 chow/control-chow alternating schedule) ad libitum for 15 weeks. Proteinuria was measured using Albustix strips (Siemens). Kidney histology was done using routine H&E staining. Thirty million splenocytes from 8 weeks old B6 (C)-H2-Ab1^bm12/KhEgJ (bm12) mice were transferred into C57BL/6 mice intraperitoneally. Mice were fed with control chow or SSI-4 chow (30 mg/kg, on an one-week SSI-4 chow/control-chow alternating schedule) ad libitum for 8 weeks.
# (§2) For analysis of surface markers, cells were stained in PBS containing 1% (w/v) bovine serum albumin on ice for 30 minutes, with anti-B220 (RA3-6B2, Biolegend), anti-CD4 (GK1.5, Biolegend), anti-CD138 (281-2, Biolegend), anti-PD-1 (J43, ThermoFisher). CXCR5 was stained with biotinylated anti-CXCR5 (2G8) followed by staining with streptavidin-conjugated PE (both from BD Biosciences). Cell viability was assessed using the Fixable Dye Ghost 510 (Tonbo Bioscience) following the manufacturer's protocol. Flow cytometry was performed on the LSR II, LSR Fortessa (BD Biosciences) or Attune NxT (ThermoFisher) cytometers, and analysis was performed using FlowJo software (Tree Star).
# [3] = tested on: SCD; assay: Fatty acid composition of fresh and activated B cells by LC-MS/MS; assay type: cell-based, mouse; details: 100 nM SSI-4, 48 hours
# [4] = tested on: SCD; assay: 13C-glucose tracing of de novo fatty acid biosynthesis in activated B cells (NEFA isotopomer analysis); assay type: cell-based, mouse; details: 48 hours
# Experimental: Briefly, 5×10^6 activated B cells were washed with PBS and re-cultured in glucose-free medium RPMI medium containing 10% dialyzed FBS and uniformly labeled [^13C]-glucose (2 g/L; Sigma-Aldrich) for 24 and 48 hours. Cell pellets were lysed in 1×PBS prior to lipid extraction. The extract was dried down and brought up in running buffer before underwent analysis on an Agilent 6550 iFunnel Q-TOF mass spectrometer/1290 Infinity liquid chromatographic system. A mixed standard containing 14 fatty acids was also run at the beginning and at the end of the sequence to generate retention time lock as well as unlabeled mass spectrum for each fatty acid. The mass spec was operating in negative electrospray ionization. Data was acquired in scan mode from 50-1700 m/z range. Data analysis was performed on Agilent Technologies software including Profinder, Mass Profiler Professional (MPP) and Vista Flux. Briefly, the features extracted from the data files were aligned using Profinder and converted to a compound exchange file (CEF) format to import in the MPP. The list was filtered for frequency and abundance to identify features that are present in all samples and with high abundance. A library was created using mass, molecular formula, and retention time of these features and used in conjunction with the Vista Flux software to determine the presence of isotopologue in individual feature. […]
# [5] = tested on: C57BL/6 mice receiving bm12 splenocytes; assay: bm12 splenocyte transfer lupus (cGvHD) model fed SSI-4 chow; assay type: in vivo, mouse; details: SSI-4 chow 30 mg/kg
# Experimental: as §1, §2
# [6] = tested on: mice immunized with NP-OVA; assay: NP-OVA immunization of mice fed SSI-4 chow: humoral immune response; assay type: in vivo, mouse
# [7] = tested on: mice; assay: Mice fed SSI-4 chow: serum fatty acids (GC-MS) and lymphocyte development; assay type: in vivo, mouse
structure (smiles),measurement,setting,value
"CCCCCCCC/C=C\CCCCCCCC(=O)O [OA, oleic acid]",restoration of human B cell proliferation and CD27 expression upon SSI-4 treatment,[1]; SSI-4 (10 nM) plus exogenous OA,restored B cell proliferation and CD27 expression
same,"human B cell activation measured by CD27 expression, exogenous OA alone",[1]; flow cytometry MFI,promoted
same,"human B cell proliferation, exogenous OA alone",[1]; thymidine incorporation,promoted human B cell proliferation
"CNC(=O)c1ccnc(NC(=O)N2CCC(Oc3ccccc3Cl)CC2)c1 [SSI-4, 2-{[4-(2-Chlorophenoxy)piperidine-1-carbonyl]amino}-N-methylpyridine-4-carboxamide]",kidney histology (H&E),"[2]; SSI-4 chow 60 mg/kg, alternating schedule",reduced immune cell infiltration and inflammation
same,proteinuria,"[2]; SSI-4 chow 60 mg/kg, two-week alternating schedule, from 6 weeks old, measured from 8 weeks old",no increase of proteinuria
same,B cell proliferation measured by Ki-67 expression,[2]; flow cytometry,significantly reduced
same,B cell metabolic activity measured by expression of CD98,[2]; flow cytometry MFI,significantly reduced
same,"accumulation of MUFAs (PO, OA) in activated B cells",[3],largely reversed it
same,"13C incorporation from glucose in OA, PO and vaccenic acid",[4],all abolished
same,"13C incorporation from glucose into SA, PA and myristic acid",[4],largely unaffected
same,generation of CXCR5+PD-1+ follicular helper T cells,[5],reduced
same,generation of IgD-CD138+ plasma cells,[5],reduced
same,serum anti-dsDNA autoantibody level,"[5]; one-week alternating schedule, 8 weeks, ELISA",reduced
same,B220intCD138+ plasmablast generation,"[6]; NP-OVA immunized, SSI-4 chow",not affected
same,antigen specific NP+ GC B cells,"[6]; NP-OVA immunized, SSI-4 chow",reduced
same,splenic GC formation,"[6]; NP-OVA immunized, SSI-4 chow",significantly suppressed
same,OA level in sera of immunized mice,"[6]; NP-OVA immunized, SSI-4 chow, GC-MS",substantially reduced
same,mTORC1 activity (p-S6 MFI) in splenic B cells in vivo,"[6]; SSI-4 chow (30 mg/kg), NP-OVA immunization for one week",suppressed mTORC1 activity
same,percentage of Tfh cells after immunization,[6]; SSI-4 chow vs control chow,comparable
same,production of anti-NP specific IgM antibodies,[6]; serum ELISA,but not IgM
same,production of anti-NP specific total IgG and IgG1 antibodies,[6]; serum ELISA,significantly reduced
same,CD25+ pre-B cells in bone marrow,[7]; SSI-4 chow,significant reduction
same,GC percentage and IgA expression in Peyer's patches,[7]; SSI-4 chow,modest reduction
same,composition of thymocytes,[7]; SSI-4 chow,unaffected
same,number of peripheral B cells and CD4+ T cells,[7]; SSI-4 chow,not affected
same,pool of immature B cells and B cell precursors (CD19+ B220int) in bone marrow,[7]; SSI-4 chow,significant reduction
same,serum OA and PO concentration,"[7]; SSI-4 chow for 1 week, GC-MS",markedly reduced
same,frequency of mature B cells (CD19+IgMloIgD+),"[7]; SSI-4 chow, spleen",slightly increased
